Assay results published in US20220315571A1 (Cytokinetics, Inc., priority 2019, published 2022).
Like-named read-outs stand apart in the source and are kept apart here. Values belong to the compound of their own block, whether it stands above or below them.

Experiments:
[1] = Dynamic Vapor Sorption (DVS); format: physicochemical; details: 5-90% relative humidity (RH) range, 25° C.
Experimental: DVS analyses were carried out TA Instruments Q5000 Dynamic Vapor Sorption analyzer. The instrument was calibrated with standard weights and a sodium bromide standard for humidity. Samples were analyzed at 25° C. with a maximum equilibration time of 60 minutes in 10% relative humidity (RH) steps from 5 to 95% RH (adsorption cycle) and from 95 to 5% RH (desorption cycle).
Polymorphic Form I of (R)-N-(5-(5-ethyl-1,2,4-oxadiazol-3-yl)-2,3-dihydro-1H-inden-1-yl)-1-methyl-1H-pyrazole-4-carboxamide was analyzed by XRPD, DSC, TGA, and DVS. […] As shown in the TGA graph, a weight loss of 0.2% below 200° C., was observed.

[2] = Polymorph screening, heat/humidity exposure of Form I (XRPD); format: physicochemical
Experimental: Polymorphic Form I of (R)-N-(5-(5-ethyl-1,2,4-oxadiazol-3-yl)-2,3-dihydro-1H-inden-1-yl)-1-methyl-1H-pyrazole-4-carboxamide was mixed with various solvents under various conditions. Samples generated were analyzed by XRPD.

myocytes = assay: Myocyte contractility assay (fractional shortening, edge detection); format: cell-based, Sprague-Dawley rats; details: 5 μM, adult rat myocytes, 5 min perfusion, 5 cells tested
Experimental: Adult male Sprague-Dawley rats were anesthetized and the hearts were quickly excised, rinsed and the ascending aorta was cannulated. Continuous retrograde perfusion was initiated on the hearts at a perfusion pressure of 60 cm H2O. Hearts were first perfused with a nominally Ca^2+-free modified Krebs solution of the following composition: 113 mM NaCl, 4.7 mM KCl, 0.6 mM KH2PO4, 0.6 mM Na2HPO4, 1.2 mM MgSO4, 12 mM NaHCO3, 10 mM KHCO3, 30 mM taurine, 5.5 mM glucose and 10 mM Hepes (all Sigma). This medium is not recirculated and is continually aerated with a 95% O2/5% CO2 mixture. […]
Aliquots of myocytes in Tyrode's buffer were placed in perfusion chambers (series 20 RC-27NE; Warner Instruments) complete with heating platforms. […] Contractility of the myocytes and contraction and relaxation velocities were then recorded using edge detection.
Five or more individual myocytes were tested per compound from two or more different myocyte preparations. […] These average transients were analyzed using the IonWizard software (IonOptix) to determine changes in diastolic length and fractional shortening. Fractional shortening was calculated as: ((resting length−length at peak contraction) divided by the resting length). The percent change in fractional shortening from baseline was calculated as: ((post-dose fractional shortening/basal fractional shortening)*100). […]

[3] = system: Rat Cardiac Contractility; assay: Echocardiography assessment of acute pharmacodynamic effect in rat cardiac contractility; format: in vivo, Sprague Dawley rats
Experimental: Assessment of in vivo cardiac function by echocardiography was performed in male Sprague Dawley rats under isoflurane (1-3%) anesthesia. 2-D M-mode images of the left ventricle were acquired in the parasternal long-axis view before, during, and after administration of compounds by continuous IV infusion or oral gavage. In vivo fractional shortening was determined by M-mode image analysis with the following calculation: ((End diastolic diameter—end systolic diameter)/end diastolic diameter×100). For continuous IV infusion experiments, three pre-dose baseline M-mode images were taken at 1 minute intervals prior to infusion of compound. Compounds were formulated in 50% Propylene Glycol (PG): 16% Captisol: 10% dimethylacetamide (DMA) and delivered via a jugular vein catheter at the rate of 1 mL/kg/h. During infusion, M-mode images were taken at 5 minute intervals. The infusion stopped when fractional shortening reached up to a 60% reduction from baseline. Blood samples were taken to determine the plasma concentration of the compounds. Data was reported as an estimated IC50 value, which is the concentration at which fractional shortening is 50% of the pre-dose baseline contractility.
For oral dosing studies, three pre-dose baseline M-Mode images were taken at 1 minute intervals prior to compound administration. […] Rats were lightly anesthetized for M-Mode echocardiography measurements at select time points over a 24 hour period. Different dose levels were evaluated. The compound effect on cardiac fractional shortening at the highest dose evaluated is presented below as a percent reduction of baseline fractional shortening (=100%).
Concurrent with echocardiography measurements, blood samples were taken to determine the corresponding compound plasma concentration.

[4] = Competitive slurry experiments between Form I and Form IV; format: physicochemical
Excerpt: The results of the competitive slurry experiments are provided below in Table 7.

- moisture uptake as determined by DVS [1]: 0.60 % w/w
- XRPD form after heat/humidity exposure ([2]; none, RT, 0% RH): Form I
- XRPD form after heat/humidity exposure ([2]; water vapor, 40° C., 75% RH): Form I
- XRPD form after heat/humidity exposure ([2]; water vapor, RT, 59% RH): Form I
- XRPD form after heat/humidity exposure ([2]; water vapor, RT, 75% RH): Form I
- XRPD form after heat/humidity exposure ([2]; water vapor, RT, 97% RH): Form I
Compound: CCc1nc(-c2ccc3c(c2)CC[C@H]3NC(=O)c2cnn(C)c2)no1 [Form I, (R)-N-(5-(5-ethyl-1,2,4-oxadiazol-3-yl)-2,3-dihydro-1H-inden-1-yl)-1-methyl-1H-pyrazole-4-carboxamide]

- IC50 ([3]; continuous IV infusion, rats under isoflurane, read-out: estimated IC50 (plasma concentration at which fractional shortening is 50% of pre-dose baseline contractility), Mean±S.D.): 7.2 ± 0.2 µM
- IC50 ([3]; oral dosing studies, rat, read-out: estimated IC50 (plasma concentration, fractional shortening)): 7.9 µM
Compound: CCc1nc(-c2ccc3c(c2)CC[C@H]3NC(=O)c2cnn(C)c2)no1 [(R)-N-(5-(5-ethyl-1,2,4-oxadiazol-3-yl)-2,3-dihydro-1H-inden-1-yl)-1-methyl-1H-pyrazole-4-carboxamide]
- % FS (% reduction from baseline) ± SEM (myocytes): 67.4 ± −5.8%
- FS (% reduction from baseline) at 1-2 h post dose (Mean ± S.D.) ([3]; 2 mg/kg single dose by oral gavage, rat, 1-2 h post dose): 43 ± 9%
- FS (% reduction from baseline) at 4 h post dose (Mean ± S.D.) ([3]; 2 mg/kg single dose by oral gavage, rat, 4 h post dose): 31 ± 9%
- estimated IC10 (plasma concentration, fractional shortening) ([3]; oral dosing studies, rat): 0.8 µM

- XRPD form after competitive slurry ([4]; ACN, 2 ° C.): Form IV
- XRPD form after competitive slurry ([4]; ACN, 25 ° C.): Form IV
- XRPD form after competitive slurry ([4]; ACN, 60 ° C.): Form IV
- XRPD form after competitive slurry ([4]; acetone, 2 ° C.): Form IV
- XRPD form after competitive slurry ([4]; acetone, 25 ° C.): Form IV
- XRPD form after competitive slurry ([4]; acetone, 60 ° C.): Form IV
Compound: CCc1nc(-c2ccc3c(c2)CC[C@H]3NC(=O)c2cnn(C)c2)no1 [Forms I and IV, (R)-N-(5-(5-ethyl-1,2,4-oxadiazol-3-yl)-2,3-dihydro-1H-inden-1-yl)-1-methyl-1H-pyrazole-4-carboxamide]

- relative stability of forms in competitive slurry ([4]; temperature range 2-60° C.): more stable than Form I
Compound: CCc1nc(-c2ccc3c(c2)CC[C@H]3NC(=O)c2cnn(C)c2)no1 [Form IV, (R)-N-(5-(5-ethyl-1,2,4-oxadiazol-3-yl)-2,3-dihydro-1H-inden-1-yl)-1-methyl-1H-pyrazole-4-carboxamide]
